The subject of one assay is CD8^+ T cells. Nature of the assay: Acetyl-CoA measurement. The conditions noted are these: 500 µM DEG, 30 min or 7 days. Type of assay: cell-based, human. The protocol:
Acetyl-CoA levels were determined using an acetyl-CoA assay kit (catalogue no. MAK039, Sigma-Aldrich). After culture, 2 × 10^6 cells per condition were collected, washed twice with ice-cold PBS and resuspended in 500 µl of the assay buffer. Following deproteinization by adding 2 µl 1M perchloric acid, samples were sonicated and the assay was performed according to the manufacturer’s instructions. Data were acquired on the FLUOstar Omega.

The target of a further assay is T1, PDHE2 K259 in HeLa cells (Homo sapiens, UniProt P10515).
T1 construct: Proteomic analysis of PDHE2 immunoprecipitated from HeLa cells; endogenous in cells; host or cells: HeLa cells
Nature of the assay: Proteomic analysis of PTMs on immunoprecipitated PDHE2. It counts as cell-based. The following applies: 500 µM DEG, 24 h. How it is done: HeLa cells were lysed on ice for 30 min in a HEPES buffer (150 mM NaCl, 50 mM HEPES, pH 7.0, 1% IGEPAL CA-630, 1 mM nicotinamide (Sigma-Aldrich), 5 mM Tris(2-carboxyethyl)phosphine hydrochloride (Sigma-Aldrich), 1× Complete Protease Inhibitor Cocktail (Roche) and 1 mM phenylmethylsulfonyl fluoride). Lysates were centrifuged at 14,000g for 10 min at 4 °C. Free thiols were blocked by adding 10 mM N-ethylmaleimide (NEM) (Sigma-Aldrich) and incubated on a rotator at 4 °C for 1 h. Lysates were immunoprecipitated by incubation with protein G Dynabeads (catalogue no. 10003D, Invitrogen), first for 1 h to pre-clear, and then overnight with the DLAT antibody (12362S (4A4-B6-C10), Cell Signaling Technology). […]
Raw files were processed using PEAKS Studio (v.8.0, Bioinformatics Solutions) with the following parameters: enzyme: AspN, human database (UniProt reference proteome downloaded 21 January 2021 containing 20,541 proteins) with additional contaminant database (containing 246 common contaminants); variable modifications at PEAKS database stage: oxidation, carbamidomethylation, lipoylation, 1× and 2× NEM, glutaryl lipoate, NEM glutaryl lipoate and 309 built-in modifications at PEAKS PTM stage. The area under the curve (AUC) values for each peptide were extracted from the PEAKS peptide list, with AUCs calculated by PEAKS.

For assay [1], the system named is human CD8^+ T cells. Nature of the assay: Glucose uptake assay. It counts as cell-based. The conditions noted are these: 500 µM DEG, acute and chronic. How it is done:
Glucose uptake was determined using a Glucose Uptake Assay Kit (catalogue no. J1341, Promega Corporation). The assay was performed according to the manufacturer’s instructions. Data were acquired on the FLUOstar Omega.

Another assay concerns B16F10-OVA cancer cells. Nature of the assay: In vitro cytotoxicity of OT1 CD8^+ T cells. It counts as cell-based, mouse. The conditions noted are these: T cells cultured 7 days with 500 µM DEG. The protocol:
Ten thousand B16F10-OVA or SKOV3 cells were seeded per well in 96-well plates and cocultured for a minimum of 14 h with varying ratios of mouse CD8^+ OT1 or human CD8^+RQR8^+ HER2 CAR T cells, respectively. T cells had been treated with or without DEG 7 days before the assay. Wells were washed twice with PBS to remove T cells and the number of remaining target cells was determined by culturing with 10 µg ml^−1 resazurin (catalogue no. R7017, Sigma-Aldrich) and measuring the fluorescence signal in a plate reader. Cytotoxicity was calculated relative to wells with no T cells added. Ten thousand Raji cells were cocultured for a minimum of 14 h with CD19 CAR T cells previously activated for 7 days and cultured with or without DEG. Cytotoxicity was assessed by flow cytometry using the ratio of live Raji cells to CountBright Absolute Counting Beads (catalogue no. C36950, Thermo Fisher Scientific). To determine specific cytotoxicity, data were normalized to the cytotoxicity of the vector-controlled transduced CD8 T cells of the respective donor.

A further assay has as its target T2, PDHc (Homo sapiens, UniProt P10515).
T2 construct: we performed a direct enzymatic activity assay of the PDHc on CD8^+ T cell lysates; endogenous in cells; host or cells: human CD8+ T cells, lysate (activity kit MAK183, Sigma-Aldrich)
Nature of the assay: PDHc activity assay on CD8^+ T cell lysates. Type of assay: cell-based. The following applies: 500 µM DEG. The protocol:
PDHc activity was determined using a PDHc Activity Assay Kit (catalogue no. MAK183, Sigma-Aldrich). A total of 1 × 10^6 cells were used per reaction and the assay was performed according to the manufacturer’s instructions. Activity was normalized to total protein concentration. Data were acquired on a FLUOstar Omega (BMG Labtech).

Assay [2] concerns human CD8^+ T cells. Nature of the assay: Markers of T cell differentiation and exhaustion by flow cytometry. Type of assay: cell-based. How it is done:
Single-cell suspensions were stained with LIVE/DEAD Fixable Near-IR Dead Cell Stain Kit (catalogue no. 10119, Thermo Fisher Scientific) followed by surface and intracellular staining with fluorochrome-labelled antibodies (Supplementary Tables 1 and 2). Staining of cytoplasmic and nuclear antigens was performed using the Cytofix/Cytoperm Fixation/Permeabilization Kit (catalogue no. 554714, BD Biosciences) and the Transcription Factor Buffer Set (catalogue no. 562725, BD Biosciences), respectively. For the proliferation assays, cells were loaded with CellTrace Violet (catalogue no. C34557, Thermo Fisher Scientific) according to the manufacturer’s instructions. Samples were acquired on an Aurora (Cytek Biosciences).
In general terms: A flow cytometer gives signals particle by particle.

Setting [3] is: 10 days of DEG treatment, 500 µM.

Molecules are shown by their SMILES.

Take `CCOC(=O)CCCC(=O)OCC` [DEG, Diethyl glutarate]: in the assay on CD8^+ T cells, the acetyl-CoA levels entry is “not lower”. Besides, on PDHE2 K259 in HeLa cells, the “levels of glutaryl-lipoyl K259 of PDHE2” value is recorded as “increasing” and the “levels of lipoyl K259 of PDHE2” value is “reduced”. The “rate of glucose uptake” value in the assay on human CD8^+ T cells [1] is listed as “no changes”. Also, in the assay with B16F10-OVA cancer cells, the “killing of B16F10-OVA cancer cells by OT1 CD8^+ T cells” value is “more proficient at killing”. On PDHc (30 min), the “PDHc activity, acute exposure” value is recorded as “decreased PDHc activity”. In addition, on PDHc (seven day), the “PDHc activity, chronic exposure” value is “decreased PDHc activity”. In the assay with human CD8^+ T cells [2] (setting [3]), the “expression of LAG3” value is “downregulated”, the “expression of TIM3” value is given as “downregulated” and the “expression of TOX” value is “downregulated”. Further, in the assay on human CD8^+ T cells [2] (DEG 500 µM, 7-10 days), the “expression of granzyme B (GZMB)” value was “increases”.
